Data set [1] in a line: Stability and drug release in GSH (RP-HPLC). Type of data set: in vitro ADME. The method, then: […] After incubation for the indicated time, samples were centrifuged to collect the clear supernatant and stored at −30° C. until analysis. RP-HPLC injections were carried out at the specified conditions, and the area of peak was integrated for further calculation.
The next data set relates to HT-29. Nature of the data set: Cytotoxicity by SRB assay in HT-29 cells.
A short description of data set [2]: Human plasma stability (RP-HPLC). The settings on record: 95% human plasma, 37° C. Type of data set: in vitro ADME. On the procedure: To access human plasma stability, synthesized conjugates were prepared in 95% human plasma. […] The mixture was centrifuged at 13,000 rpm for 5 min. […] For compounds 30 and 31, they were dissolved in DMA and added GSH (11.2 mM or 11.2 μM) solution which was prepared in sodium acetate buffer (10 mM, pH 5.0) in the ratio of 50/40 (v/v, drug in DMA/GSH solution) for final GSH of 5 mM or 5 μM in pH 7.0, respectively. After incubation for the indicated time, samples were centrifuged to collect the clear supernatant and stored at −30° C. until analysis. RP-HPLC injections were carried out at the specified conditions, and the area of peak was integrated for further calculation.

The test system of data set [3] is CRC cell lines HCT-116 and HT-29. Kind of data set: Cytotoxicity against CRC cell lines, summary over both lines (SRB assay). Type of data set: cell-based, human. The settings on record: for cytotoxicity against CRC cell lines, in words: HCT-116 and HT-29, with or without GSH; for IC50: read-out: IC50 in CRC cells. On the procedure:
(§1) The fraction of cell survival was calculated as follows. Survival fraction=(OD treated−blank)/(OD control−blank). […] Each experiment was repeated three times.
Background: The SRB assay estimates cell density from bound dye.

The subject of another data set is HCT-116. Kind of data set: Cytotoxicity by SRB assay in HCT-116 cells. Type of data set: cell-based, human. The method, then: as §1
The nature of data set [4]: Body weight changes in the CRC mice model. The settings on record: during treatment in CRC mice model. Type of data set: in vivo, BALB/c mice. On the procedure:
Azoxymethane (AOM)-induced murine CRC model was applied to model human CRC. BALB/c mice (6 weeks of age, male) were intraperitoneally (i.p.) injected once every two weeks with AOM (10 mg/kg body weight) or the PBS vehicle. Seven days after each AOM injection, 2% dextran sulfate sodium (DSS) was given in the drinking water for four days, followed by 3 days of regular water. This cycle was repeated three times. The mice were randomly divided into eight groups (n=5), on day 60 after the first AOM treatment. […] Irinotecan (20 mg/kg), compound 31 (20 mg/kg), and irinotecan+compound 17 (20 mg/kg of irinotecan and 14 mg/kg of compound 17) were injected i.p. q.o.d for two weeks. […] Tumor volumes and body weights were recorded at sacrifice. The tumors were counted under a dissecting microscope, and the area covered by tumors was measured by imaging software (AxioVision LE 4.8.2.0).

The subject of data set [5] is orthotopic CRC mice model. Nature of the data set: Orthotopic AOM/DSS-induced CRC mice model, tumor area. Type of data set: in vivo, BALB/c mice. The settings on record: SN-38 series; i.v. once every two days for two weeks; 40 mg/kg vs irinotecan 40 mg/kg. The method, then:
Azoxymethane (AOM)-induced murine CRC model was applied to model human CRC. BALB/c mice (6 weeks of age, male) were intraperitoneally (i.p.) injected once every two weeks with AOM (10 mg/kg body weight) or the PBS vehicle. Seven days after each AOM injection, 2% dextran sulfate sodium (DSS) was given in the drinking water for four days, followed by 3 days of regular water. This cycle was repeated three times. The mice were randomly divided into eight groups (n=5), on day 60 after the first AOM treatment. […] Tumor volumes and body weights were recorded at sacrifice. The tumors were counted under a dissecting microscope, and the area covered by tumors was measured by imaging software (AxioVision LE 4.8.2.0).

[6] abbreviates: Homo sapiens, HT-29, 48 h, read-out: IC50 HT-29 5 mM GSH.
Setting [7] is: Homo sapiens, HT-29, 48 h, read-out: IC50 HT-29 w/o GSH.
Setting [8] is: Homo sapiens, HCT-116, read-out: IC50 HCT-116 5 mM GSH, 48 h, 5 mM GSH.
Setting [9] is: Homo sapiens, HCT-116, 48 h, w/o GSH, read-out: IC50 HCT-116 w/o GSH.
Where [10] appears, read: Homo sapiens, HT-29, 48 h, read-out: IC50 HT-29.
Setting [11] is: Homo sapiens, HCT-116, read-out: IC50 HCT-116 5 mM GSH, 72 h, prepared in DMA, 5 mM GSH.
Where [12] appears, read: Homo sapiens, HCT-116, 48 h, prepared in DMSO, read-out: IC50 HCT-116.
[13] abbreviates: Homo sapiens, HCT-116, 72 h, prepared in DMA, w/o GSH, read-out: IC50 HCT-116 w/o GSH.
Setting [14] is: read-out: IC50 HT-29, 48 h, prepared in DMSO.
Setting [15] is: read-out: IC50 HT-29 5 mM GSH, 48 h, prepared in DMA, 5 mM GSH.
Where [16] appears, read: read-out: IC50 HT-29 w/o GSH, 48 h, prepared in DMA, w/o GSH.
The mark [17] stands for this setting: 72 h, prepared in DMA, w/o GSH, read-out: IC50 HCT-116 w/o GSH.
[18] abbreviates: read-out: IC50 HCT-116 5 mM GSH, 72 h, prepared in DMA, 5 mM GSH.

Experimental findings from US12458702B2 (NATIONAL TAIWAN UNIVERSITY, priority 2022, dated 2025) are described below.

Entries after “also recorded” stand apart in the source; their conditions may differ. Where two headings read alike, the source gives them in different places.

For `O=C(CCCCCN1C(=O)CC(SCCOCCOCCOc2cc(O)c(C(=O)CCc3ccc(O)cc3)c(O)c2)C1=O)OCn1cc(F)c(=O)[nH]c1=O` (centres unmarked) [Compound 5, (5-Fluoro-2,4-dioxo-3,4-dihydropyrimidin-1(2H)-yl)methyl 6-(3-((2-(2-(2-(3,5-dihydroxy-4-(3-(4-hydroxyphenyl)propanoyl)phenoxy)ethoxy)ethoxy)ethyl)thio)-2,5-dioxopyrrolidin-1-yl)hexanoate], the “release of 5-FU, in words” value in data set [1] (5 mM GSH, after 48 h) is on record as “Little 5-FU was released”. Moreover, the IC50 in the data set with HT-29 (setting [6]) was 86.9 ± 2.9 µM; in the data set on HT-29 (setting [7]), 43.7 ± 5 µM; in the data set with HCT-116 (setting [8]) it was 82.8 ± 4.18 µM; in the data set on HCT-116 (setting [9]), 75 ± 13.7 µM. Moreover, the “half-life in human plasma” value in data set [2] is 48 min. Also, the “cytotoxicity against CRC cell lines, in words” value in data set [3] was “poorly cytotoxic”.
With `O=C(CCc1ccc(O)cc1)c1c(O)cc(O)cc1O` [Phloretin (3), phloretin, reference compound], the IC50 in the data set on HT-29 (setting [10]) was above 100 µM; in the data set on HT-29 (setting [6]), above 100 µM; with HT-29 (setting [7]), above 100 µM; in the data set with HCT-116 (setting [11]), 77.6 ± 3.42 µM; in the data set on HCT-116 (setting [12]), above 100 µM; in the data set with HCT-116 (setting [13]), above 100 µM.
Regarding `O=C(CCCCCN1C(=O)CC(SCCOCCOCCOc2cc(O)c(C(=O)CCc3ccc(O)cc3)c(O[C@@H]3O[C@H](CO)[C@@H](O)C(O)[C@H]3O)c2)C1=O)OCn1cc(F)c(=O)[nH]c1=O` (stereo partly drawn) [Compound 4, (5-Fluoro-2,4-dioxo-3,4-dihydropyrimidin-1(2H)-yl)methyl 6-(3-((2-(2-(2-(3-hydroxy-4-(3-(4-hydroxyphenyl)propanoyl)-5-(((2S,3R,5S,6R)-3,4,5-trihydroxy-6-(hydroxymethyl)tetrahydro-2H-pyran-2-yl)oxy)phenoxy)ethoxy)ethoxy)ethyl)thio)-2,5-dioxopyrrolidin-1-yl)hexanoate], the IC50 in the data set on HT-29 (setting [6]) was 93.6 ± 9.4 µM; in the data set on HT-29 (setting [7]), above 100 µM; with HCT-116 (setting [8]), above 100 µM; in the data set on HCT-116 (setting [9]), 97.4 ± 20.3 µM. In addition, the “cytotoxicity against CRC cell lines, in words” value in data set [3] was “poorly cytotoxic”.
In the case of `CCc1c2c(nc3ccc(OCc4ccc(NC(=O)[C@H](CCCNC(N)=O)NC(=O)[C@@H](NC(=O)CCCCN5C(=O)CC(SCCOCCOCCOc6cc(O)c(C(=O)CCc7ccc(O)cc7)c(O)c6)C5=O)C(C)C)cc4)cc13)-c1cc3c(c(=O)n1C2)COC(=O)[C@]3(O)CC` (some centres unmarked) [Compound 38], the “cytotoxicity in HT-29 cell line, in words” value in the data set with HT-29 was “less sensitive”. In the data set on HT-29 (setting [14]), the IC50 is above 100 µM. Besides, in data set [4], the “body weight change, in words” value was “did not decrease the body weight; also recorded: no significant change in the body weight”. Besides, in data set [5], the “anti-tumor efficacy (tumor area), in words” value is reported as “good therapeutic efficacy than irinotecan; also recorded: better anti-tumor efficacy than irinotecan”.
`CCc1c2c(nc3ccc(OC(=O)OCCSSCCOCCOCCOc4ccc(O)c(C(=O)CCc5ccc(O)cc5)c4O[C@@H]4O[C@H](CO)[C@@H](O)[C@H](O)[C@H]4O)cc13)-c1cc3c(c(=O)n1C2)COC(=O)[C@]3(O)CC` [Compound 30, (S)-4,11-diethyl-4-hydroxy-3,14-dioxo-3,4,12,14-tetrahydro-1H-pyrano[3′,4′:6,7]indolizino[1,2-b]quinolin-9-yl(2-((2-(2-(2-(4-hydroxy-3-(3-(4-hydroxyphenyl)propanoyl)-2-(((2S,3R,4S,5S,6R)-3,4,5-trihydroxy-6-(hydroxymethyl)tetrahydro-2H)pyran-2-yl)oxy)phenoxy)ethoxy)ethoxy)ethyl)disulfanyl)ethyl) carbonate]: the “release rate of SN-38” value in data set [1] (5 mM GSH) is reported as “about 60%”. The IC50 in the data set with HT-29 (setting [15]) worked out at 0.0301 ± 0.0026 µM; with HT-29 (setting [16]), 0.0396 ± 0.00345 µM; in the data set on HCT-116 (setting [17]), 0.00244 ± 0.00017 µM; in the data set on HCT-116 (setting [18]), 0.00257 ± 0.00013 µM. Further, the “half-life in human plasma” value in data set [2] was found to be 20 min. Besides, the “cytotoxicity against CRC cell lines, in words” value in data set [3] is reported as “less or similar cytotoxicity”.
Turning to `O=C(CCCSSCCOCCOCCOc1cc(O)c(C(=O)CCc2ccc(O)cc2)c(O[C@@H]2O[C@H](CO)[C@@H](O)C(O)[C@H]2O)c1)OCn1cc(F)c(=O)[nH]c1=O` (stereo partly drawn) [Compound 6, (5-fluoro-2,4-dioxo-3,4-dihydropyrimidin-1(2H)-yl)methyl 4-((2-(2-(2-(3-hydroxy-4-(3-(4-hydroxyphenyl)propanoyl)-5-(((2S,3R,5S,6R)-3,4,5-trihydroxy-6-(hydroxymethyl)tetrahydro-2H-pyran-2-yl)oxy)phenoxy)ethoxy)ethoxy)ethyl)disulfanyl)butanoate], the half-life at 2.5 mM in data set [1] (PBS containing GSH, pH 7.4, highly reductive environments, read-out: half-lives in highly reductive environments) was below 300 min. Further, the IC50 in the data set with HT-29 (setting [6]) amounted to 8 ± 0.52 µM; in the data set with HT-29 (setting [7]), 59.8 ± 7.93 µM; in the data set on HCT-116 (setting [8]) it was 23.8 µM; in the data set on HCT-116 (setting [9]) it was 54.9 µM.
Consider `O=C(CCc1cn(CCOCCOCCOc2cc(O)c(C(=O)CCc3ccc(O)cc3)c(O[C@@H]3O[C@H](CO)[C@@H](O)C(O)[C@H]3O)c2)nn1)OCn1cc(F)c(=O)[nH]c1=O` (stereo partly drawn) [Compound 8, (5-Fluoro-2,4-dioxo-3,4-dihydropyrimidin-1(2H)-yl)methyl 3-(1-(2-(2-(2-(3-hydroxy-4-(3-(4-hydroxyphenyl)propanoyl)-5-(((2S,3R,5S,6R)-3,4,5-trihydroxy-6-(hydroxymethyl)tetrahydro-2H-pyran-2-yl)oxy)phenoxy)ethoxy)ethoxy)ethyl)-1H-1,2,3-triazol-4-yl)propanoate], for which the IC50 in the data set with HT-29 (setting [7]) and in the data set with HCT-116 (setting [9]) was above 100 µM in each case. For the same compound, the “cytotoxicity against CRC cell lines, in words” value in data set [3] is reported as “poorly cytotoxic”.
On to `CCc1c2c(nc3ccc(O)cc13)-c1cc3c(c(=O)n1C2)COC(=O)[C@]3(O)CC` [SN-38 (28), SN-38, reference compound], for which the IC50 with HT-29 (setting [15]) was 0.0113 ± 0.00073 µM; in the data set with HT-29 (setting [14]), 0.43 ± 1e-05 µM; in the data set with HT-29 (setting [16]), 0.0134 ± 0.0004 µM; in data set [3] (HCT-116 and HT-29, Tables 2 and 3), 0.002 to 0.43 µM; in the data set on HCT-116 (48 h, prepared in DMSO, read-out: IC50 HCT-116), 0.0549 ± 0.00386 µM; in the data set with HCT-116 (setting [17]), 0.00237 ± 4e-05 µM. The IC50 in the data set on HCT-116 (setting [18]) amounted to 0.00288 ± 8e-05 µM.
`O=C(CCc1ccc(O)cc1)c1c(O)cc(O)cc1O[C@@H]1O[C@H](CO)[C@@H](O)[C@H](O)[C@H]1O` [Phlorizin (2), phlorizin, reference compound]: the IC50 with HT-29 (setting [10]), in the data set on HT-29 (setting [6]), in the data set on HT-29 (setting [7]), with HCT-116 (setting [11]), in the data set on HCT-116 (setting [12]) and in the data set with HCT-116 (setting [13]) was above 100 µM each time.
With `O=C(CCc1ccc(O)cc1)c1c(O)cc(OCCOCCOCCS)cc1O` [Compound 17, 1-(2,6-Dihydroxy-4-(2-(2-(2-mercaptoethoxy)ethoxy)ethoxy)phenyl)-3-(4-hydroxyphenyl)propan-1-one], the IC50 was 29.1 ± 6.14 µM in the data set on HT-29 (setting [10]); 24.2 ± 0.4 µM with HT-29 (setting [6]); 29.1 ± 6.14 µM in the data set with HT-29 (setting [7]); 15 to 30 µM in data set [3] (Homo sapiens, HCT-116 and HT-29, over Tables 1 to 3); 15.9 ± 0.89 µM with HCT-116 (setting [8]); 15.9 ± 0.89 µM with HCT-116 (setting [11]). Also, the IC50 in the data set on HCT-116 (setting [12]), with HCT-116 (setting [9]) and with HCT-116 (setting [13]) was 15.5 ± 0.72 µM throughout.
